Data taken from patent US20120157717A1, “METHODS AND COMPOSITIONS FOR PRODUCING LINEAR ALKYL BENZENES” (LS9, INC., priority 2010, published 2012).
Where two headings read alike, the source gives them in different places.

T1: PCC7942_orf1594 protein (Synechococcus elongatus, UniProt Q54765)
T1 construct: His-tag (C); made in house; host or cells: E. coli BL21 (DE3)
T1 sequence (Q54765 1-341): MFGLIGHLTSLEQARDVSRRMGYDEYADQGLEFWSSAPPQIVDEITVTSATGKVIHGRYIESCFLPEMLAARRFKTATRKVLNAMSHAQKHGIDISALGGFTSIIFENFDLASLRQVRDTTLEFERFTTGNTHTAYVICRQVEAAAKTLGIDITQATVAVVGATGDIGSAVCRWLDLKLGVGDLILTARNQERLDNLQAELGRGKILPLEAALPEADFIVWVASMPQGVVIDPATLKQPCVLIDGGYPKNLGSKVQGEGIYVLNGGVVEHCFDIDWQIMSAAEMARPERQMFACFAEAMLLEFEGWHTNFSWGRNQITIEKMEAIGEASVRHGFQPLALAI

B1: Synechococcus elongatus PCC7942 YP-400611 (Synpcc7942-1594) acyl-ACP reductase, purified with C-terminal His-tag (protein)
chain: T1 sequence (Q54765 1-341)

What was measured:
[1] = target: T1, PCC7942_orf1594 protein; assay: acyl-ACP or acyl-CoA reductase enzyme assay (aldehyde formed, GC/MS); assay type: biochemical, Synechococcus elongatus PCC7942
Description: The genomic DNA encoding S. elongatus […] orf1594 (SEQ ID NO:65) was cloned into the NcoI and XhoI sites of vector pET-28b under the control of the T7 promoter. The resulting PCC7942_orf1594 protein contained a C-terminal His-tag. An E. coli BL21 strain (DE3) (Invitrogen) was transformed with the plasmid and PCC7942_orf1594 protein was expressed and purified as described in Example 22. The protein solution was stored in the following buffer: 50 mM sodium phosphate, pH 7.5, 100 mM NaCl, 1 mM THP, 10% glycerol. Protein concentration was determined using the Bradford assay (Biorad). 2 mg/mL of PCC7942_orf1594 protein was obtained.
To test PCC7942_orf1594 protein for acyl-ACP or acyl-CoA reductase activity, the following enzyme assays were set-up. 100 μL reactions were set-up in 50 mM Tris-HCl buffer at pH 7.5 with the following components at their respective final concentrations: 10 μM of purified PCC7942_orf1594 protein, 0.01-1 mM acyl-CoA or acyl-ACP, 2 mM MgCl2, 0.2-2 mM NADPH. The reactions were incubated for 1 h at 37° C. and where stopped by adding 100 μL ethyl acetate (containing 5 mg/l 1-octadecene as internal standard). Samples were vortexed for 15 min and centrifuged at max speed for 3 min for phase separation. 80 μL of the top layer were transferred into GC glass vials and analyzed by GC/MS as described in Example 26. The amount of aldehyde formed was calculated based on the internal standard.

[2] = test system: Prochlorococcus marinus CCMP1986 PMM0532 (NP-892650; putative decarbonylase)
[3] = target: octadecenoyl-ACP
[4] = in the presence of 2 mM NADPH, 10 μM purified enzyme, 2 mM MgCl2, pH 7.5, 1 h at 37° C., read-out: Km for the reduction of the acyl substrate

| Molecule | Km [1, 4] | also measured |
| --- | --- | --- |
| octadecenoyl-CoA | 82 ± 22 µM | – |
| NC(=O)C1=CN([C@@H]2O[C@H](COP(=O)(O)OP(=O)(O)OC[C@H]3O[C@@H](n4cnc5c(N)ncnc54)[C@H](OP(=O)(O)O)[C@@H]3O)[C@@H](O)[C@H]2O)C=CC1 [NADPH, reference compound] | – | Km ([1]; in the presence of 0.5 mM octadecanoyl-CoA, read-out: Km value for NADPH): 400 ± 80 µM |
| CCCCCCCCCCCCCCCCCC(=O)SCCNC(=O)CCNC(=O)[C@H](O)C(C)(C)COP(=O)(O)OP(=O)(O)OC[C@H]1O[C@@H](n2cnc3c(N)ncnc32)[C@H](O)[C@@H]1OP(=O)(O)O [octadecanoyl-CoA] | 45 ± 20 µM | – |
| Prochlorococcus marinus CCMP1986 PMM0533 (NP-892651; putative aldehyde-generating enzyme) | – | hydrocarbon and fatty alcohol production by cotransformed E. coli MG1655 (GC/MS) [2]: E. coli cells transformed with only the P. marinus CCMP1986 PMM0533-bearing vector did not produce any fatty aldehydes or fatty alcohols. However, E. coli cells cotransformed with PMM0533 and PMM0532-bearing vectors produced hexadecanol, pentadecane and heptadecene |
| octadecenoyl-ACP | 7.8 ± 2 µM | – |
| B1 | – | Km for the reduction of octadecenoyl-ACP in the presence of 2 mM NADPH (in vitro reductase assay, GC/MS) [3]: 7.8 ± 2 µM |
